US10835500B2, “Medicament for accelerated wound healing” (Symrise AG, priority 2014, dated 2020)

Assays:
ERK1/2 MAPK = assay: Western Blot, phosphorylation of ERK1/2 MAPK in HaCaT cells; type: cell-based, human; conditions: inhibitor 10 μM, Sandalore 500 μM
Method: (§1) In the following, an investigation was to be conducted to determine whether a MAPK signalling pathway is activated by Sandalore® stimulation in skin cells, and if so, which pathway is involved. For detection, HaCaT cells were stimulated for 0-30 min with 500 μM of Sandalore®, and the proteins were then isolated and used in Western Blot assays.
In order to reveal a possible interaction of the two MAPK signalling pathways, ERK1/2 phosphorylation in the presence of the p38 MAPK inhibitor SB203580 and p38 MAPK phosphorylation in the presence of the ERK1/2 MAPK inhibitor U0126 were investigated. Phosphorylation was increased for both kinases in the presence of the respective inhibitors compared to the cells stimulated with Sandalore® only. This effect was significant for p38 MAPK (FIG. 17c).
(§2) Effect of Sandalore® stimulation on phosphorylation of MAP kinases in skin cells. A) Western Blot for investigating the phosphorylation of the MAP kinases in HaCaT cells stimulated for 0, 5, 15 and 30 min with Sandalore®(500 μM). In order to confirm uniform protein volume, ▪-tubulin was used as a control. ERK1/2: 42/44 kDa; p38: 43 kDa; JNK/SAPK: 46/54 kDA; ▪-tubulin: 52 kDa. B) Quantitative evaluation of p38 and ERK1/2 phosphorylation of HaCaT cells stimulated for 30 min with Sandalore®(500 μM) or additionally with the p38 inhibitor 5B203580 (10 μM) or ERK1/2 inhibitor U0126 (10 μM). For evaluation, the ratio of the phosphorylated (p) and unphosphorylated proteins was established and compared to that of untreated cells. Mean values including standard error. Mann-Whitney U test. *: p<0.05; ***: p<0.001. In C), the inhibitors of the respective other MAP kinase were used, and phosphorylation was compared to the cells stimulated with Sandalore® (500 μM) alone. Mean values including standard error. Mann-Whitney U test. *: p<0.05. The Western Blot analyses were carried out with three different protein isolations.

p38 MAPK = assay: Western Blot, phosphorylation of p38 MAPK in HaCaT cells; type: cell-based, human; conditions: inhibitor 10 μM, Sandalore 500 μM
Method: as §1
In order to reveal a possible interaction of the two MAPK signalling pathways, ERK1/2 phosphorylation in the presence of the p38 MAPK inhibitor SB203580 and p38 MAPK phosphorylation in the presence of the ERK1/2 MAPK inhibitor U0126 were investigated.
as §2, with “A)” for “Effect of Sandalore® stimulation on phosphorylation of MAP kinases in skin cells. A)”, “In order to confirm uniform protein volume, ▪-tubulin was used as a control.” left out

HaCaT cells = assay: In vitro wound scratch assay, HaCaT cells; type: cell-based, human; conditions: HaCaT; for Sandalore-increased wound healing on coincubation: 48 hours, Sandalore 500 μM + antagonist 500 μM or inhibitor 10 μM; for effect of the substance alone on wound healing: antagonist 500 μM or inhibitor 10 μM alone
Description: The MAP kinases p38 and ERK1/2 are often associated with increased proliferation and migration in epidermal wound healing. For this reason, in a further physiological experiment, the effect of Sandalore® on “wound healing” of a confluent cell layer of HaCaT cells or primary keratinocytes was investigated. For this purpose, the wound scratch assay was used, which is an established in vitro method for initial investigations of wound healing processes in keratinocytes.
In order to investigate the role of the OR2AT4 receptor in this effect, a test was conducted to determine whether the two antagonists Oxyphenylon and Phenirat could again reduce the “wound healing” increased by Sandalore®. For this purpose, Sandalore® was mixed with one of the antagonists each in the same ratio, and the effect on “wound healing” of the HaCaT cells was again observed for 48 hours. […] The two antagonists alone had no effect on the “wound healing” (FIG. 18d). The role of the MAP kinases p38 and ERK1/2 was investigated by means of specific inhibitors of the kinases. For p38 MAPK, the […] SB203580 was used, and for ERK1/2 MAPK, the […] U0126 was used. […] The two inhibitors alone had no effect on the wound healing (FIG. 18d).
Effect of Sandalore® stimulation on human keratinocytes in an in vitro “wound healing” assay. Investigation of the “wound healing rate” of A) primary keratinocytes and B) HaCaT cells by means of a wound scratch assay in the presence of Sandalore® (500 μM) or 0.1% DMSO as a control. Left: Transmitted light images of the “wound” observed at various times. The growth margin of the cells was surrounded in black. Scale: 200 μm. Right: Quantitative evaluation of the wound scratch assay. The areas of the wounds were measured and compared to the initial wound (0 h). Mean values including standard error. Mann-Whitney U test; n=4 experiments. *: p<0.05; ***: p<0.001. C) Wound scratch assay in the presence of Sandalore® (500 μM) and one of the antagonists Oxyphenylon (500 μM) or Phenirat (500 μM) respectively, the p38 MAPK inhibitor 5B203580 (10 μM), or the ERK1/2 MAPK inhibitor U0126 (10 μM). The measured wound areas of the treated cells (after 48-hour stimulation) were compared to the control (0.1% DMSO). Mean values including standard error. Kruskal-Wallis test with multiple comparison; n=3 experiments. *: p<0.05. D) Controls for the wound scratch assay with Oxyphenylon (500 μM), Phenirat (500 μM), 5B203580 (10 μM), or U0126 (10 μM) carried out under C). The measured wound areas of the treated cells were compared to the control (0.1% DMSO). Mean value included.

[1] = molecular target: T1, recombinantly expressed OR2AT4 (Homo sapiens, UniProt A6NND4); assay: Calcium imaging of transiently OR2AT4-transfected Hana3A cells; type: cell-based; conditions: 1 mM odorant, 20 s stimulation, OR2AT4-transfected Hana3A cells
T1 construct: expressed in transfected cells; host or cells: Hana3A cells, transient transfection with pcDNA3-OR2AT4 by the calcium phosphate method
T1 sequence (A6NND4 1-320): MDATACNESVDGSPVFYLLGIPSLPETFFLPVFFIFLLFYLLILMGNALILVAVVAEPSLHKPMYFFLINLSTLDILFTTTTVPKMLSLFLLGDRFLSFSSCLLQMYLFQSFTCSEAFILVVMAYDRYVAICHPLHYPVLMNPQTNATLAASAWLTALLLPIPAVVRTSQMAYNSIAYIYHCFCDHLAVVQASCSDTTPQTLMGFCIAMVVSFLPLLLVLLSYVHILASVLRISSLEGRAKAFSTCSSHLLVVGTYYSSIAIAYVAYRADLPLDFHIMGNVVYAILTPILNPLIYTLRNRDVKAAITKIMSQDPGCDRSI
Method: Hana3A cells expressing stable endogenous olfactory transduction factors, which specifically target the incorporation of ORs into the cell membrane and thus improve activation capacity, were used as a heterologous expression system. Moreover, the 20 first N-terminal amino acids of rhodopsins (Rho-tag) were added before the N-terminus of the coding sequence of the OR, also in order to support heterologous expression.
A method established at the Department of Cell Physiology of Ruhr University Bochum for deorphanization studies is calcium imaging, in which activation of an OR by an odorant is visualized by a change in the intracellular calcium concentration of transfected cells using a fluorescent dye [cf. Wetzel et al. in: J. Neurosci. 19, pp. 7426-7433 (1999); Spehr et al. in: Science 299, pp. 2054-2058 (2003); Neuhaus et al. in: J. Biol. Chem. 284, pp. 16218-16225 (2009)]. In this method, the Hana3A cells are briefly (20 s) stimulated with an odorant and selected for odorant screenings of high concentrations (up to 1 mM) in order to confirm activation of ORs weakly expressed in Hana3A cells.
The activation of OR2AT4 by Sandalore® was first investigated by the calcium imaging method.
Odorants can not only activate a receptor, but can also act as antagonists to an OR.
(§3) Determination of receptive field of recombinantly expressed OR2AT4. […] As a control, untransfected Hana3A cells were simulated with Sandalore®. 100 μM of ATP was used at the end of each measurement as a positive control stimulus. […] The mean response rate including standard error of the cells is shown relative to the Ringer control. […] Isobornyl.: isobornyl cyclohexanol; S. öl: sandalwood oil. Kruskal-Wallis test with multiple comparison. *: p<0.05. […] Significance was determined between Hana3A cells transfected with OR2AT4-pcDNA3 and pcDNA3 without an insert. The dots show mean normalized luciferase-activity including standard error. Mann-Whitney U test; n=3 experiments. *: p<0.05; **: p<0.01; ***: p<0.001.
Antagonists of recombinantly expressed OR2AT4. […] 100 μM of ATP was used at the end of each measurement as a positive control stimulus. […] The mean response rate including standard error of the cells is shown relative to the Ringer control. Number of measurements: Ringer (23), Sandalore® (22), Sandalore®+dimetol (11), dimetol (11), Phenirat (14), Sandalore®+Phenirat (22), Oxyphenylon (12), and Sandalore®+Oxyphenylon (20). S: Sandalore®. Kruskal-Wallis test with multiple comparison. *: p<0.05.

[2] = molecular target: T1, recombinantly expressed OR2AT4; assay: CRE dual luciferase assay in OR2AT4-transfected Hana3A cells; type: cell-based; conditions: for activation of OR2AT4 in the luciferase assay: up to the highest useable concentrations 10-25 μM
Description: In order to verify calcium imaging results and investigate dose-dependent activation of OR2AT4, a further method of deorphanization based on a dual luciferase system was used. In this method, in addition to the OR, two luciferases were introduced into the Hana3A cells. When the expressed OR is activated by an odorant and cAMP is formed in the further course of the signal cascade, this initiates expression of firefly luciferase via CRE (cAMP response elements). The second luciferase, Renilla luciferase, serves as a control for transfection and vitality of the cells. By calculating the two luciferase values, the activation capacity of an OR by an odorant can be determined. In the CRE luciferase assay, the odorant remains on the cells for hours in order to ensure that the luciferase is expressed. Because of the longer incubation time of the odorants and the possibility of activating more receptors in a 96-well format, this method is more sensitive than calcium imaging and is well-suited for establishing dose-response relationships.
For Brahmanol, however, a higher concentration (≥75 μM) was required than for Sandalore® (≥25 μM) in order to produce a significant effect at the receptor (FIG. 3c).
as §3

Row | Compound | Sandalore-increased wound healing on coincubation (HaCaT cells) | effect of the substance alone on wound healing (HaCaT cells) | response rate of the Hana3A cells relative to the Ringer control [1] | activation of OR2AT4 in the luciferase assay [2] | also measured
1 | C[S+]([O-])c1ccc(-c2nc(-c3ccncc3)c(-c3ccc(F)cc3)[nH]2)cc1 (centres unmarked) [SB203580] | again reduced to the normal level | no effect | – | – | ERK1/2 phosphorylation in the presence of the p38 MAPK inhibitor compared to Sandalore only (ERK1/2 MAPK): increased; Sandalore-induced p38 MAPK phosphorylation with p38 inhibitor (p38 MAPK; 30 min): significantly reduced
2 | isobornyl cyclohexanol | – | – | only Brahmanol showed an increased response rate | no increased activation of OR2AT4 | –
3 | CC1=CCC(C=CC(C)(C)C(C)O)C1(C)C (centres unmarked) [Polysantol] | – | – | only Brahmanol showed an increased response rate | no increased activation of OR2AT4 | –
4 | N#CC(=C(/N)Sc1ccccc1N)/C(C#N)=C(\N)Sc1ccccc1N [U0126] | again reduced to the normal level | no effect | – | – | Sandalore-induced ERK1/2 MAPK phosphorylation with ERK1/2 inhibitor (ERK1/2 MAPK; 30 min): significantly reduced; increase of p38 MAPK phosphorylation in the presence of the ERK1/2 MAPK inhibitor compared to Sandalore only (p38 MAPK): significant
5 | CC/C(=C\CC1CC=C(C)C1(C)C)CO (centres unmarked) [Sandranol] | – | – | only Brahmanol showed an increased response rate | – | reaction in the CRE luciferase assay ([2]; at the investigated concentration (≥50 μM)): no reaction
